In test [1] the test system is FgTGRsec (GR activity). Further details: method as in PMID 29526505. As to conditions: cited from earlier work.
In test [2] the target is T1, FgTGRsec (TrxR activity) (Fasciola gigantica, UniProt A0A0K1NYF8). Further details: method as in PMID 29526505. As to conditions: cited from earlier work.
Test [3] has as its system Taenia crassiceps cysticerci. Further details: method as in PMID 20431894. The conditions noted are these: cited from earlier work.
Test [4] concerns the target T1, FgTGRsec (TrxR activity). Put plainly: DTNB-based TrxR activity inhibition assay of FgTGRsec. In kind it is biochemical. As to conditions: DTNB reduction, 20 min incubation, triplicate, read-out: IC50 of rFgTGRsec. The method, then:
The TrxR activity of FgTGR and FgTGRsec was determined by using the 5, 5′-diothiobis (2-nitrobenzoic acid, DTNB, 4 mg/mL) (Sigma, St. Louis, MO, USA) reduction assay at room temperature. The reaction mixture was composed of 180 μL working buffer (0.1 mM potassium phosphate, pH 7.0, 10 mMEDTA, 100 μM β-nicotinamide adenine dinucleotide phosphate (NADPH) (Sigma)), 4 μL assay buffer (0.1 mM potassium phosphate, pH 7.0, 10 mM EDTA), 6 μL DTNB, and 10 μL rFgTGR or rFgTGRsec (600 μg/mL). The reaction was initiated by the adding DTNB at concentrations ranging from 100 μmol/L to 1000 μmol/L. An increase in absorbance at 412 nm was observed within the first 2 min. One unit of thioredoxin reductase (TrxR) activity was defined as the amount of enzyme that catalyzes the production of 1 μmol of 2-nitro-5-thiobenoic acid (TNB) per minute at room temperature. The reaction mixture without FgTGR or FgTGRsec was used as a negative control, and the processes of the negative experiments were the same as the above description.
To evaluate the effect of furoxan derivatives on FgTGRsec, the activity of TrxR was measured. The furoxan derivatives were soluble in dimethyl sulfoxide (DMSO), and seven concentrations of each derivative were prepared based on their distinct structures. For the DTNB-based TrxR activity inhibition assay, reaction mixtures were prepared as described in the TrxR activity assay protocol. The components were incubated for 20 min, after which the reaction was initiated by adding DTNB. The increase in absorbance at 412 nm was measured to evaluate the inhibitory effect of each furoxan derivative. The half-maximal inhibitory concentration (IC50) values of the compounds were calculated by GraphPad Prism v6.0c software. The reaction without FgTGRsec and furoxan derivatives served as the blank control, while the reaction with furoxan was the positive control. All assays were performed in triplicate.

In test [5] the test system is SjTGRsec (TrxR activity). Further details: method as in PMID 33902686. As to conditions: S. japonicum, result in words; cited from earlier work.

Where two headings read alike, the source gives them in different places.

T1 sequence (A0A0K1NYF8 entry or part of it): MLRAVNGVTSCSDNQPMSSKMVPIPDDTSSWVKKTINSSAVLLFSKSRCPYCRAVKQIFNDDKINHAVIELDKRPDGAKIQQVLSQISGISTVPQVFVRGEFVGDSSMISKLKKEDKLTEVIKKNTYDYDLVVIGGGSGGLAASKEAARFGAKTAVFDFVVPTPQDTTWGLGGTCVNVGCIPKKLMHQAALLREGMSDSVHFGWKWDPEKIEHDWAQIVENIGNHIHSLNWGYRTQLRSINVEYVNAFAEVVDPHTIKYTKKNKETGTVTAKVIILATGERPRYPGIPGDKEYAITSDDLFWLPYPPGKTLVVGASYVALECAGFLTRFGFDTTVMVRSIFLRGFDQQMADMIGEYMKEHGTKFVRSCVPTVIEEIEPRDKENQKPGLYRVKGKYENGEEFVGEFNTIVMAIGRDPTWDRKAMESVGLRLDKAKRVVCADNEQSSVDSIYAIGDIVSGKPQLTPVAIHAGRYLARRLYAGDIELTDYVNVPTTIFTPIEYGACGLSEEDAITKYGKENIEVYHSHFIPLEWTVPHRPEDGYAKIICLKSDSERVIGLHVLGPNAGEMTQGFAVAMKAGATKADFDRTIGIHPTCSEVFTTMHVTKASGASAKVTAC

By IC50 is commonly meant the concentration at which inhibition is half-maximal. For `CC(=O)OC[C@H]1O[C@@H]([S-])[C@H](OC(C)=O)[C@@H](OC(C)=O)[C@@H]1OC(C)=O.CCP(CC)CC.[Au+]` [AF, auranofin], the values for the concentration for half-maximal inhibition (IC50) in test [1], in test [2] and in test [3] (Taenia crassiceps cysticerci cultured with AF for 12 h) were 8.3 µM, 0.87 µM and 3.8 µM, respectively. In addition, the survival of cysticerci result in test [3] (after culturing with AF for 12 h) is reported as “all dead”. As to `[O-][n+]1onc(-c2ccc(C(F)(F)F)cc2)c1CN1CCN(c2ccccc2F)CC1` [CH-33], the IC50 in test [4] turned out to be 18.5 ± 2.57 µM. As for `[O-][n+]1onc(-c2cccnc2)c1CO` [LGM-1], the IC50 in test [4] worked out at 6.93 ± 1.74 µM.

For the molecule `[O-][n+]1onc(-c2ccncc2)c1CO` [LGM-2], the IC50 in test [4] was found to be 15.2 ± 0.8 µM. As for `[O-][n+]1onc(-c2ccc(C(F)(F)F)nc2)c1CO` [LGM-35], the “inhibition of TrxR activity” value in test [5] is given as “most significant inhibition”. For the same molecule, the IC50 in test [4] turned out to be 4.5 ± 0.35 µM. As for `[O-][n+]1onc(-c2cccc(Cl)c2)c1CO` [ZWJ-19], the IC50 in test [4] is 3.82 ± 0.33 µM.

Source of the values: article PMC12655518, “Screening Novel Furoxan Derivatives as Potential Inhibitors Targeting Thioredoxin Glutathione Reductase of Fasciola gigantica” (Pharmaceuticals, 2025).
